{
  "source": "patent US20160081973A1",
  "about": "“ACTIVATOR OF MITOCHONDRIA” (FLORA CO., LTD., priority 2013, published 2016)",
  "type_in_all_cases": "cell-based, human",
  "key": {"HL60 cells [1]": {"tested_on": "HL60 cells", "test": "Cell differentiation induction test, NBT reduction staining (differentiation into neutrophils)", "conditions": "for differentiation ratio (ratio of NBT-stained cells): after 10 days of culture", "protocol": "(§1) To each well of a 6-well plate, 1 mL of HL60 cells were plated at a concentration of 5×10^4 cells/mL, and a test substance at five serial concentrations (a 10-fold dilution series ranging from 10%) was added to the well at the same time as the plating. The cells in the plate were cultured for 5 days or 10 days under 5% […] at 37° C. The cell suspension in each well was recovered by centrifugation, and the number of cells, the NBT reducing capacity, and the esterase activity of the recovered cells were measured. In addition, changes in the karyotype of each cell was observed by Carrazzi's hematoxylin staining. The ratio of stained cells in each sample was measured to evaluate the differentiation induction capacity. The test was carried out in 5 replicates (n=5). A sample without addition of the test substance, and 0.1% ethyl alcohol (solvent control for the positive control) were used as negative controls, and retinoic acid (dissolved in ethyl alcohol; final concentration, 1 μM) and active vitamin D3 (dissolved in ethyl alcohol; final concentration, 10 nM) were used as positive controls. Details of each staining method are described below.\nThe concentration of the recovered cells was adjusted to 1×10^6 cells/mL with RPMI 1640 medium (SIGMA, R8758, serum-free), and an equal volume of NBT solution (PBS supplemented with 0.2% NBT and 20% FBS, which was used after filtration) was added thereto. TPA was added to the resulting mixture to a final concentration of 6 μM, and the mixture was then stirred. Thereafter, the mixture was left to stand at 37° C. for 30 minutes, and centrifuged at 1000 rpm for 5 minutes, followed by discarding the supernatant. Subsequently, the cells were resuspended in PBS, and applied onto a slide glass, followed by counting cells stained blue under the microscope."}, "HL60 cells [2]": {"tested_on": "HL60 cells", "test": "Cytotoxicity test (mitochondrial activity level, counting of viable cells with WST-8)", "conditions": "3 days of culture, FIG. 1", "protocol": "HL60 cells were cultured using a test medium (RPMI 1640 medium, 10% FBS, antibiotic-free) to the logarithmic growth phase in a CO: incubator (5% Cq, 37° C.). 2) Cytotoxicity Test (Evaluation of the Toxicity Based on the Viability, that is, the Survival Rate or the Death Rate, of Cells) To each well of a 96-well plate, 0.1 mL of HL6O cells were plated at a concentration of 5×10^4 cells/mL, and a test substance (7 serial dilutions: a 10-fold dilution series ranging from 10%; the test substance was preliminarily sterilized by filtration) was added to the well at the same time. After 3 days of the culture, a viable cell assay reagent SF (final concentration, 10%) was added to the cell suspension culture liquid, and viable cells were counted. The test was carried out in 3 replicates (n=3). The viability of the cells was evaluated using a viable cell counting reagent SF (WST-8) based on measurement of the absorbance."}, "HL60 cells [3]": {"tested_on": "HL60 cells", "test": "DNA methylation level in HL60 cells", "conditions": "10 days of culture, FIG. 7"}, "HL60 cells [4]": {"tested_on": "HL60 cells", "test": "Cell differentiation induction test, esterase staining (differentiation into monocytes)", "conditions": "final concentration 1 μM", "protocol": "as §1\nEsterase staining was carried out as follows using an esterase staining kit (manufactured by Muto Pure Chemicals Co., Ltd.). The concentration of the recovered cells was adjusted to 1×10^6 cells/mL with PBS. […]"}, "HL60 cells [5]": {"tested_on": "HL60 cells", "test": "Counting of viable cells by trypan blue staining", "conditions": "positive control; solvent control 1.0×10^−5% DMSO; 5 days of culture; FIG. 8", "protocol": "In each of T25 flasks, 5 mL of HL60 cells were seeded at 1×10^7 cells/flask. At the same time as the seeding, test substances (ethyl alcohol, retinoic acid, dimethyl sulfoxide, rotenone, SDW, and Examples 3 and 4) were fed to the flasks.\nThe addition of Example 3 to the medium was carried out after its sterilization by filtration. In Example 4, 10 mL of the test substance was warmed at 60° C. to evaporate the whole solvent, and 10 mL of sterile water was newly added thereto to dissolve the resultant. The resulting solution was sterilized by filtration, and then added to the medium. The retinoic acid to be added was provided as a concentrated solution containing retinoic acid at a concentration of 100 mM in ethyl alcohol, and the rotenone to be added was provided as a concentrated solution containing rotenone at a concentration of 100 mM in DMSO. […]\nTo 50 μL of a cell suspension culture liquid, 50 μL of a trypan blue solution was added, and the reaction was allowed to proceed for several minutes. Under the microscope, unstained cells and stained cells were counted using a hemocytometer. The number of dead cells (stained cells) per total number of cells was determined to calculate the number of live cells (cells/mL) and the dead cell ratio (%)."}},
  "data": [
    {"compound": "C=C1/C(=C\\C=C2/CCC[C@]3(C)[C@@H]([C@H](C)CCCC(C)(C)O)CC[C@@H]23)C[C@@H](O)C[C@@H]1O", "note": "[active vitamin D3, reference compound]", "values": [
      {"measurement": "differentiation ratio (ratio of NBT-stained cells)", "setting": "HL60 cells [1]; final concentration 10 nM, decreased by half", "result": 4, "unit": "%"}
    ]},
    {"compound": "O=c1c(O)c(-c2ccc(O)cc2)oc2cc(O)cc(O)c12", "note": "[kaempferol]", "values": [
      {"measurement": "mitochondrial activity (absorbance, viable cell count)", "setting": "HL60 cells [2]; concentration 0.1% (30 ng/mL=0.03 μg/mL) to 10% (300 μg/mL)", "result": "increased"},
      {"measurement": "mitochondrial activity (absorbance, viable cell count)", "setting": "HL60 cells [2]; concentration 3.2×10^−4% to 0.032%", "result": "suppressed"},
      {"measurement": "differentiation ratio (ratio of NBT-stained cells)", "setting": "HL60 cells [1]; 300 μg", "result": 3, "unit": "%"},
      {"measurement": "differentiation ratios (NBT-stained cells) on Day 10 of the culture, change", "setting": "HL60 cells [1]; Day 10 of the culture, FIG. 4", "result": "decreased"},
      {"measurement": "differentiation ratio (NBT-stained cells), trend", "setting": "HL60 cells [1]; after 5 days of culture, FIG. 3", "result": "concentration-dependent improvement"},
      {"measurement": "DNA methylation level in the HL60 cells", "setting": "HL60 cells [3]; concentration 0.001%", "result": "increased"},
      {"measurement": "DNA methylation level in the HL60 cells", "setting": "HL60 cells [3]; concentration 10% (300 μg/mL)", "result": "decreased"}
    ]},
    {"compound": "CC1=C(/C=C/C(C)=C/C=C/C(C)=C/C(=O)O)C(C)(C)CCC1", "note": "[retinoic acid]", "values": [
      {"measurement": "differentiation ratio (ratio of NBT-stained cells)", "setting": "HL60 cells [1]; final concentration 1 μM", "result": 68, "unit": "%"},
      {"measurement": "differentiation into monocytes (ratio of esterase-stained cells)", "setting": "HL60 cells [4]; Day 5 of the culture", "result": 2, "unit": "%"},
      {"measurement": "differentiation into monocytes (ratio of esterase-stained cells)", "setting": "HL60 cells [4]; Day 10 of the culture", "result": 14, "unit": "%"}
    ]},
    {"compound": "C=C(C)[C@H]1Cc2c(ccc3c2O[C@@H]2COc4cc(OC)c(OC)cc4[C@@H]2C3=O)O1", "note": "[rotenone]", "values": [
      {"measurement": "viable cell count by trypan blue staining versus solvent control", "setting": "HL60 cells [5]", "result": "decreased to about half"}
    ]}
  ]
}
